The text below walks through data of ChEMBL document CHEMBL1132099, “The design of potent and selective inhibitors of thrombin utilizing a piperazinedione template: part 2” (Bioorg Med Chem Lett, 1999).

Each structure is given as a SMILES string.

Assay [1] deals with T1, Prothrombin (Homo sapiens, UniProt P00734). As to the kind of experiment: Inhibitory concentration required against thrombin was determined.
The target in assay [2] is T2, Serine protease 1 (Homo sapiens, UniProt P07477). Nature of the assay: Inhibitory concentration required against trypsin was determined.
T2 sequence (P07477 whole entry): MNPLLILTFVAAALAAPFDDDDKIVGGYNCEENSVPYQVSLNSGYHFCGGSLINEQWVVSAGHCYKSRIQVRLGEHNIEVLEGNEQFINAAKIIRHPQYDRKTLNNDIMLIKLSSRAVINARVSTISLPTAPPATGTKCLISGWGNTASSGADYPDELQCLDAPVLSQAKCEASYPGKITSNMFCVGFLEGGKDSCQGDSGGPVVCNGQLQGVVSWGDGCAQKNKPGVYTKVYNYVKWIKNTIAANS
In assay [3] the target is T1, Prothrombin. As to the kind of experiment: Inhibition of thrombin.
Assay [4] concerns the target T2, Serine protease 1. As to the kind of experiment: Compound was tested for percent inhibition against trypsin at 100 uM.
Assay [5] concerns Trypsin. As to the kind of experiment: Compound was tested for percent inhibition against trypsin at 100 uM.

Turning to `Cc1ccc(CCCN2CC(=O)N(CC(=O)N[C@@H](CC3CCCN(C(=N)N)C3)C(=O)c3nccs3)[C@H](Cc3ccccc3)C2=O)cc1` (some centres not stated), the IC50 (usually the concentration that gives 50% inhibition) in assay [1] worked out at 210 nM; in assay [2], 4100 nM.

Consider `N=C(N)N1CCCC(C[C@H](NC(=O)CN2C(=O)CN(CCc3ccccc3)C(=O)[C@H]2Cc2ccccc2)C(=O)c2nccs2)C1` (some centres not stated), for which the IC50 in assay [1] came to 990 nM; in assay [2], 45000 nM.

As for `N=C(N)NCCC[C@H](NC(=O)CN1C(=O)CN(CCCc2ccccc2)C(=O)[C@H]1Cc1ccccc1)C(=O)c1nccs1`, the IC50 in assay [1] was determined as 3400 nM; in assay [2], 96 nM.

Regarding `N=C(N)N1CCCC(C[C@H](NC(=O)CN2C(=O)CN(CCCc3ccccc3)C(=O)[C@H]2Cc2ccccc2)C(=O)c2nc3ccccc3s2)C1` (some centres not stated), the IC50 is 150 nM in assay [1] and 3700 nM in assay [2]. Besides, in assay [3], the Ki – broadly, the equilibrium dissociation constant of an inhibitor or competing ligand from its target – was 80 nM.

With `COc1ccc(CCCN2CC(=O)N(CC(=O)N[C@@H](CC3CCCN(C(=N)N)C3)C(=O)c3nccs3)[C@H](Cc3ccccc3)C2=O)cc1` (some centres not stated), the IC50 in assay [1] amounted to 160 nM; in assay [2] it was 14000 nM.

`N=C(N)NCCC[C@H](NC(=O)CN1C(=O)CN(CCCc2ccccc2)C(=O)[C@H]1Cc1ccccc1)C(=O)O`: the inhibition in assay [4] and in assay [5] was 20% in each case.

Regarding `N=C(N)N1CCCC(C[C@H](NC(=O)CN2C(=O)CN(Cc3ccccc3)C(=O)[C@H]2Cc2ccccc2)C(=O)c2nccs2)C1` (some centres not stated), the half-inhibitory concentration (IC50) in assay [1] came to 1230 nM; in assay [2], 21000 nM.

Take `N=C(N)N1CCCC(C[C@H](NC(=O)CN2C(=O)CN(CCCc3ccccc3)C(=O)[C@H]2Cc2ccccc2Cl)C(=O)c2nccs2)C1` (some centres not stated): the values for the IC50 in assay [1] and in assay [2] were 18 nM and 9700 nM, respectively. The compound further came in with a Ki in assay [3] of 1.2 nM.

Turning to `N=C(N)N1CCCC(C[C@H](NC(=O)CN2C(=O)CN(CCCc3ccccc3)C(=O)[C@H]2Cc2ccccc2)C(=O)N2CCCCC2)C1` (some centres not stated), the IC50 in assay [1] was 6600 nM. In assay [4], the inhibition – broadly, how much of the control response was suppressed – was 52%. This compound also yielded a Ki in assay [3] of 825 nM.

Consider `CCCCN1CC(=O)N(CC(=O)N[C@@H](CC2CCCN(C(=N)N)C2)C(=O)c2nccs2)[C@H](Cc2ccccc2)C1=O` (some centres not stated), for which the results for the IC50 in assay [1] and in assay [2] were 340 nM and 15000 nM, respectively. Also, in assay [3], the Ki worked out at 32 nM.

In turn, `N=C(N)N1CCCC(C[C@H](NC(=O)CN2C(=O)CN(Cc3ccccc3)C(=O)[C@@H]2Cc2ccc3ccccc3c2)C(=O)c2nccs2)C1` (some centres not stated) displayed an IC50 in assay [1] of 170 nM. This compound also displayed a Ki in assay [3] of 3.5 nM.

Consider `N=C(N)NCCC[C@H](NC(=O)CN1C(=O)CN(CCCc2ccccc2)C(=O)[C@H]1Cc1ccccc1)C(N)=O`, for which the inhibition in assay [4] was 15%; in assay [5], 35%.

Consider `N=C(N)N1CCCC(C[C@H](NC(=O)CN2C(=O)CN(CCCc3ccccc3)C(=O)[C@H]2Cc2ccc(Cl)cc2)C(=O)c2nccs2)C1` (some centres not stated), for which the IC50 in assay [1] came out at 280 nM; in assay [2], 17000 nM.

Regarding `N=C(N)N1CCCC(C[C@H](NC(=O)CN2C(=O)CN(CCCc3ccc(Cl)cc3)C(=O)[C@H]2Cc2ccccc2)C(=O)c2nccs2)C1` (some centres not stated), the IC50 in assay [1] turned out to be 110 nM; in assay [2] it was 4800 nM.

With `N=C(N)N1CCC[C@@H](C[C@H](NC(=O)CN2C(=O)CN(CCCc3ccccc3)C(=O)[C@H]2Cc2ccccc2)C(=O)c2nccs2)C1`, the IC50 in assay [1] came out at 170 nM; in assay [2], 9100 nM. In addition, in assay [3], affinity was put at a Ki of 55 nM.

With `N=C(N)N1CCCC(C[C@H](NC(=O)CN2C(=O)CN(CCCc3ccccc3)C(=O)[C@H]2Cc2cccc(Cl)c2)C(=O)c2nccs2)C1` (some centres not stated), the IC50 in assay [1] worked out at 390 nM; in assay [2] it was 4800 nM. The compound also showed a Ki in assay [3] of 20 nM.

`CC(C)c1ccc(CCCN2CC(=O)N(CC(=O)N[C@@H](CC3CCCN(C(=N)N)C3)C(=O)c3nccs3)[C@H](Cc3ccccc3)C2=O)cc1` (some centres not stated): the half-inhibitory concentration (IC50) stood at 370 nM in assay [1] and 7000 nM in assay [2].

Turning to `N=C(N)N1CCCC(C[C@H](NC(=O)CN2C(=O)CN(CCCc3ccccc3)C(=O)[C@H]2C(c2ccccc2)c2ccccc2)C(=O)c2nccs2)C1` (some centres not stated), the IC50 came out at 350 nM in assay [1] and 8500 nM in assay [2].

In the case of `N=C(N)N1CCCC(C[C@H](NC(=O)CN2C(=O)CN(CCCc3ccc(O)cc3)C(=O)[C@H]2Cc2ccccc2)C(=O)c2nccs2)C1` (some centres not stated), the figures for the half-inhibitory concentration (IC50) in assay [1] and in assay [2] were 240 nM and 25000 nM, respectively.

`N=C(N)N1CCCC(C[C@H](NC(=O)CN2C(=O)CN(CCCc3ccc([N+](=O)[O-])cc3)C(=O)[C@H]2Cc2ccccc2)C(=O)c2nccs2)C1` (some centres not stated): the IC50 stood at 210 nM in assay [1] and 9100 nM in assay [2].

For the compound `N=C(N)N1CCCC(C[C@H](NC(=O)CN2C(=O)CN(CCCc3ccccc3)C(=O)[C@H]2Cc2ccc3ccccc3c2)C(=O)c2nccs2)C1` (some centres not stated), the results for the IC50 in assay [1] and in assay [2] were 160 nM and 18200 nM, respectively. In addition, in assay [3], affinity was put at a Ki of 55 nM.

For `N=C(N)N1CCCC(C[C@H](NC(=O)CN2C(=O)CN(CCCc3ccccc3)C(=O)[C@H]2Cc2ccccc2)C(=O)N2CCCC2)C1` (some centres not stated), the IC50 in assay [1] is 660 nM; in assay [2] it was 8700 nM. In assay [3], the Ki was found to be 130 nM.

On to `C[C@@H]1C(=O)N(CCCc2ccccc2)CC(=O)N1CC(=O)N[C@@H](C[C@@H]1CCCN(C(=N)N)C1)C(=O)c1nccs1`, for which the IC50 in assay [1] amounted to 880 nM; in assay [2], 340 nM.

For `N=C(N)N1CCCC(C[C@H](NC(=O)CN2C(=O)CN(CCCc3ccccc3)C(=O)[C@H]2Cc2ccc(Cl)c(Cl)c2)C(=O)c2nccs2)C1` (some centres not stated), the IC50 in assay [1] came out at 80 nM; in assay [2] it was 7800 nM. The compound also displayed a Ki in assay [3] of 8 nM.

As for `CNC(=O)[C@H](CC1CCCN(C(=N)N)C1)NC(=O)CN1C(=O)CN(CCCc2ccccc2)C(=O)[C@H]1Cc1ccccc1` (some centres not stated), the IC50 was 440 nM in assay [1] and 2300 nM in assay [2]. Besides, the Ki in assay [3] was found to be 55 nM.

As for `N=C(N)N1CCCC(C[C@H](NC(=O)CN2C(=O)CN(CCCc3ccc(Cl)c(Cl)c3)C(=O)[C@H]2Cc2ccccc2)C(=O)c2nccs2)C1` (some centres not stated), the IC50 was 250 nM in assay [1] and 7200 nM in assay [2].
